Series [1] in a line: Pharmacokinetics, palbociclib triplet, CAPItello-292 Phase Ib. It is filed as in vivo, human. The procedure:
In the open-label Phase Ib part of the study: • The initial palbociclib cohort will receive capivasertib (320 mg oral twice daily, 4 days on and 3 days off for 4 weeks), palbociclib (125 mg, oral once daily, dosed continually for 21 days out of 28 days), and fulvestrant (500 mg intramuscular injection [IM] monthly [Day 1 of a 28-day cycle] with a loading dose of 500 mg 2 weeks after the first dose). • The initial ribociclib cohort will explore the combination of capivasertib (400 mg oral twice daily, 4 days on and 3 days off for 4 weeks), ribociclib (400 mg, oral once daily, dosed continually for 21 days out of 28 days), and fulvestrant (500 mg IM monthly [Day 1 of a 28-day cycle] with a loading dose of 500 mg 2 weeks after the first dose). • The initial abemaciclib cohort will explore the combination of capivasertib (400 mg oral twice daily, 4 days on and 3 days off for 4 weeks), abemaciclib (100 mg, oral twice daily, 28 days out of 28 days), and fulvestrant (500 mg IM monthly [Day 1 of a 28-day cycle] with a loading dose of 500 mg 2 weeks after the first dose).
At the time of data cut-off of 31 Oct. 2022, 39 patients had been treated with capivasertib in combination with palbociclib and fulvestrant across three dose levels. Dose 1 opened first; dose levels 2 and 3 opened simultaneously: • Dose level 1: capivasertib 320 mg+palbociclib 125 mg+fulvestrant 500 mg • Dose level 2: capivasertib 400 mg+palbociclib 100 mg+fulvestrant 500 mg • Dose level 3: capivasertib 400 mg+palbociclib 125 mg+fulvestrant 500 mg

Series [2] is described as follows: Pharmacokinetics, ribociclib triplet (preliminary modelling from clinical data). It is filed as in vivo, human. The following applies: for Increase of capivasertib AUC vs historical monotherapy data: preliminary modelling from clinical data. As to the method: In the open-label Phase Ib part of the study: • The initial palbociclib cohort will receive capivasertib (320 mg oral twice daily, 4 days on and 3 days off for 4 weeks), palbociclib (125 mg, oral once daily, dosed continually for 21 days out of 28 days), and fulvestrant (500 mg intramuscular injection [IM] monthly [Day 1 of a 28-day cycle] with a loading dose of 500 mg 2 weeks after the first dose). • The initial ribociclib cohort will explore the combination of capivasertib (400 mg oral twice daily, 4 days on and 3 days off for 4 weeks), ribociclib (400 mg, oral once daily, dosed continually for 21 days out of 28 days), and fulvestrant (500 mg IM monthly [Day 1 of a 28-day cycle] with a loading dose of 500 mg 2 weeks after the first dose). • The initial abemaciclib cohort will explore the combination of capivasertib (400 mg oral twice daily, 4 days on and 3 days off for 4 weeks), abemaciclib (100 mg, oral twice daily, 28 days out of 28 days), and fulvestrant (500 mg IM monthly [Day 1 of a 28-day cycle] with a loading dose of 500 mg 2 weeks after the first dose). […]

Series [3] can be described thus: Pharmacokinetics, Japanese participants. It is filed as in vivo, human (Japanese). The following applies: 100 mg oral (Japanese) vs 125 mg oral (rest of the world), with capivasertib 400 mg; preliminary limited data. The source says: (§1) For the Phase Ib part of the study, participants must be eligible for fulvestrant therapy and at least one of the following: palbociclib, ribociclib, or abemaciclib, as per local investigator assessment. Participants who received treatment with at least one prior endocrine therapy (alone or in combination) for ABC and a maximum of 2 lines prior chemotherapy (for global participants) or up to 1 prior line of chemotherapy (for Japanese participants) are eligible. […]

Series [4] relates to Japanese participants. The experiment in a line: DLTs, Japanese participants. It is filed as in vivo, human (Japanese). Conditions: capivasertib + palbociclib 125 mg + fulvestrant.
Text: as §1

The conditions of series [5]: Yu Y, et al. J Clin Pharmacol 2017; 57 (2): 173-184; cited from earlier work.
Series [6] relates to participants with locally advanced (inoperable) or metastatic HR+/HER2− breast cancer. The experiment in a line: Dose-limiting toxicities (DLTs), CAPItello-292 Phase Ib, palbociclib triplet. Conditions: triplet with capivasertib and fulvestrant. It is filed as in vivo, human. The source says: The Phase Ib part of the study consists of an open-label, 3-arm dose finding phase to determine the safe and well tolerated doses and schedules (RP3D) of capivasertib plus CDK4/6i (palbociclib, ribociclib, or abemaciclib) and fulvestrant (the latter administered at fixed dose and schedule, as per label) as triplet combinations in participants with ABC. The maximum tolerated doses (MTD) may also be determined. […]

`NC1(C(=O)N[C@@H](CCO)c2ccc(Cl)cc2)CCN(c2ncnc3[nH]ccc23)CC1` [capivasertib, (S)-4-amino-N-(1-(4-chlorophenyl)-3-hydroxypropyl)-1-(7H-pyrrolo[2,3-d]pyrimidin-4-yl) piperidine-4-carboxamide]: the “PK of capivasertib versus previous monotherapy data” value in series [1] (in combination with palbociclib and fulvestrant) is given as “consistent with previous monotherapy data”. Further, the “Increase of capivasertib AUC vs historical monotherapy data” value in series [2] (with ribociclib 400 mg, 95% CI 1% to 43%) amounted to 19%; in series [2] (with ribociclib 600 mg, 95% CI 0% to 34%) it was 16%.
In the case of `CC(=O)c1c(C)c2cnc(Nc3ccc(N4CCNCC4)cn3)nc2n(C2CCCC2)c1=O` [palbociclib, 6-acetyl-8-cyclopentyl-5-methyl-2-{[5-(1-piperazinyl)-2-pyridinyl]amino}pyrido[2,3-d]pyrimidin-7 (8H)-one], in series [1] (Cycle 1 Day 11 / Cycle 0 Day 1, with capivasertib and fulvestrant, 90% CI), the “Palbociclib AUC accumulation, Day 11/Day 1 ratio” value was 2.89 (90% CI 2.64-3.15). Besides, in series [1] (Cycle 1 Day 14 / Cycle 0 Day 1, with capivasertib and fulvestrant, 90% CI), the “Palbociclib AUC accumulation, Day 14/Day 1 ratio” value is 2.77 (90% CI 2.54-3.03). Besides, the “Increase of palbociclib area under curve (AUC) by capivasertib” value in series [1] (based on observed and expected accumulation from Cycle 0, Day 1 to Cycle 1, Day 11 and Day 14) is “approximately 20%”. The “Mean palbociclib plasma exposure, Japanese participants vs rest of the world” value in series [3] is on record as “roughly similar”. Further, in series [4], the “Incidence of DLTs (febrile neutropenia)” value is on record as “led to palbociclib dose de-escalation from 125 mg to 100 mg”. Further, the “Palbociclib expected accumulation ratio” value in series [5] is recorded as 2.4. The “Cause of the most frequent DLT (neutropenia/neutrophil count decreased)” value in series [6] is recorded as “driven by palbociclib”.
Consider `CN(C)C(=O)c1cc2cnc(Nc3ccc(N4CCNCC4)cn3)nc2n1C1CCCC1` [ribociclib, 7-cyclopentyl-N,N-dimethyl-2-{[5-(1-piperazinyl)-2-pyridinyl]amino}-7H-pyrrolo[2,3-d]pyrimidine-6-carboxamide], for which, in series [2] (with capivasertib, consistent with DDI predictions based on capivasertib as a weak CYP3A inhibitor), the “Ribociclib exposure vs published population PK model” value is listed as “generally within model predictions”.

These data come from patent publication US20260306495A1, “COMBINATION OF CAPIVASERTIB, A CDK4/6 INHIBITOR AND FULVESTRANT FOR USE IN THE TREATMENT OF BREAST CANCER” (AstraZeneca AB, priority 2023, published 2026).
